Here are results for 11 compounds from ChEMBL document CHEMBL3045791, “Pharmacological screening for anti-inflammatory, analgesic activity of pyrazolyl derivatives along with molecular docking studies” (Med Chem Res, 2012).

Series [1] deals with Rattus norvegicus. In words: Analgesic activity in Rattus norvegicus Wistar albino (rat) at 20 mg/kg, ip measured at 30 min by tail immersion method relative to control. Format: functional. To be noted: route intraperitoneal.
For series [2], the system named is Rattus norvegicus. Briefly: Ulcerogenic activity in Rattus norvegicus Wistar albino (rat) stomach assessed as ulcer index at 30 mg/kg, po measured after 17 hr relative to control. Type of series: toxicity, organism-based. Also on record: dose 30 mg/kg, route oral. To be noted: in vivo.
Series [3] has as its system Rattus norvegicus. Briefly: Anti-inflammatory activity in Rattus norvegicus Wistar albino (rat) assessed as inhibition of carrageenan-induced hind paw edema at 10 mg/kg, po measured at 4 hr relative to control. Type of series: functional.
Series [4] concerns Rattus norvegicus. Briefly: Anti-inflammatory activity in Rattus norvegicus Wistar albino (rat) assessed as inhibition of carrageenan-induced hind paw edema at 10 mg/kg, po measured at 3 hr relative to control. Type of series: functional.
For series [5], the system named is Rattus norvegicus. Briefly: Antioxidant activity in Rattus norvegicus Wistar albino (rat) stomach assessed as decrease in malondialdehyde content measured per 100 mg of tissue at 30 mg/kg, po after 60 min by spectrophotometric analysis (reference value: 3.86 +/- 0.19 nmol). Type of series: functional.

In series [1], `Cc1nn(-c2ccccc2)c(Cl)c1/C=N/NC(=O)c1ccc(Br)cc1` showed an Activity of 158.7%.
Take `Cc1nn(-c2ccccc2)c(Cl)c1/C=N/NC(=O)c1ccc(Cl)cc1`: the UI in series [2] is listed as 0.25. The values for the inhibition in vivo at 10 mg/kg in series [3] and in series [4] were 63.3% and 42.4%, respectively. The values for the Activity in series [1] and in series [5] were 160.4% and 4.51 nmol, respectively.
The compound `O=C(O)Cc1ccccc1Nc1c(Cl)cccc1Cl` [DICLOFENAC] gave an Activity in series [1] of 749.3%.
The compound `Cc1nn(-c2ccccc2)c(Cl)c1/C=N/NC(=O)c1ccccc1Cl` returned an Activity in series [1] of 149%.
For `Cc1nn(-c2ccccc2)c(Cl)c1/C=N/NC(=O)c1ccc([N+](=O)[O-])cc1`, the inhibition in vivo at 10 mg/kg is 54.4% in series [3] and 12.1% in series [4]. Further, in series [1], the Activity stood at 92.8%.
For `Cc1nn(-c2ccccc2)c(Cl)c1/C=N/NC(=O)COc1ccccc1`, the UI in series [2] was 0.41.
As to `Cc1nn(-c2ccccc2)c(Cl)c1/C=N/NC(=O)c1ccc(Cl)cc1Cl`, the inhibition in vivo at 10 mg/kg turned out to be 74.7% in series [3] and 51.5% in series [4]. This compound displayed an Activity in series [1] of 172.6%.
Taken in the same sequence, the figures for `Cc1nn(-c2ccccc2)c(Cl)c1/C=N/NC(=O)Cc1ccc(Cl)cc1` were 70.9%, 57.6% and 193.1%.
For `Cc1nn(-c2ccccc2)c(Cl)c1/C=N/NC(=O)Cc1cccc2ccccc12` the same measures were 55.7%, 42.4% and 116.3%.
As to `COc1ccc2c(c1)c(CC(=O)O)c(C)n2C(=O)c1ccc(Cl)cc1` [INDOMETHACIN], in series [2], the UI came to 4.5. The inhibition in vivo at 10 mg/kg in series [3] was 77.2%; in series [4], 48.5%. In series [5], the Activity is listed as 21.98 nmol.
`Cc1nn(-c2ccccc2)c(Cl)c1/C=N/NC(=O)c1ccc(F)cc1`: the inhibition in vivo at 10 mg/kg came to 67.1% in series [3] and 36.4% in series [4]. Further, in series [1], the Activity stood at 187.8%.
